# Source: US5614192A, “T cell receptor peptides as therapeutics for immune-related disease” (Connective Therapeutics, Inc., priority 1993, dated 1997)
# “And” between values parts separate entries of the source, which are not always exact repeats. Identical values can stand only once. Marks after values point to notes of the source that are not given here. Ends that are not written are not given here.
# Columns and labels:
# [1] = test system: DH reaction; experiment: Delayed hypersensitivity (DH) ear swelling to TCR peptide (Example VI); assay type: in vivo, Lewis rats; conditions: to 50 μg TCR Vβ8(39-59) in Vβ8(39-59)-immunized rats
# Experimental: The Vβ8(39-59)-immunized rats developed both specific antibodies to the Vβ8(39-59) peptide and a delayed hypersensitivity (DH) response of 0.17 mm ear swelling to 50 μg TCR Vβ8(39-59) peptide.
# [2] = target: T1, Gp-S49S (Cavia porcellus, UniProt P25188); experiment: Direct ELISA, antibody reactivity (Example VII); assay type: binding, guinea pig
# T1 construct: Peptide Gp-S49S defines region 69-84 of GPBP and has a C-terminal glycine; made in house; host or cells: chemical solid-phase synthesis
# [3] = test system: EAE; experiment: Prevention and suppression of EAE by immunization with TCR Vβ8(39-59) (Table 17); assay type: in vivo, Lewis rats
# [4] = test system: EAE; experiment: Prevention of EAE by immunization with TCR peptide (Example VI); assay type: in vivo, Lewis rats
# Description: EAE is a well-recognized rat model of the human autoimmune disease, multiple sclerosis. […] In this model, the disease is induced by injecting the subject rat with an encephalitogenic form of myelin basic protein, such as, for example, guinea pig basic protein (GPBP) or a synthetic peptide that corresponds to residues 72-89 of GPBP (GPBP(72-89)). Injection of either of these peptides in complete Freund's adjuvant (CFA) induces encephalitogenic T cell clones that utilize preferentially the rat homologs of mouse TCR Vα2 and Vβ8 genes (Chou, Y. K., et al., J. Neurosci. Res. 22:181-187 (1989); Burns, F. R., et al., J. Exp. Med. 169:27-39 (1989)).
# ^1 EAE was induced by SC challenge with 50 μg GPBP + 400 μg
# ^2 Rats were injected SC with either: (1) 100 μg of the TCR peptid
# ^3 Values represent the mean of the maximum severity of EAE. 0, no
# [5] = test system: Vβ8-44-54 reactive T cell clones; experiment: Specificity of Vβ8-44-54 reactive T cell clones, proliferation (Table 37); assay type: cell-based, rat
# Experimental: Proliferation assays: Proliferation assays were performed in 96-well microtiter plates. 2×10^4 T cells and 10^6 irradiated thymocytes/well were incubated with stimulation medium only, ConA, or antigen at 37C in 7% CO2. The cultures were incubated for 72 h, the last 18 h in the presence of 0.5 Bq ^3 H-Tdr. The cells were harvested onto glass fiber filters and TCR uptake was assessed by liquid scintillation. Mean CPM wre calculated from triplicate wells. The standard deviation from replicate wells varied <10% from the mean values. In some experiments, azide free antibodies to MHC I (OX-18) or MHC II (OX-6, anti-I-A and OX-17, anti-I-E) were added to the cultures to evaluate which MHC molecules were used to restrict the T cell response to TCR Vβ8-44-54 peptide.
# Isolation of Vβ8-44-54 reactive T cell clones. To characterize the anti-TCR peptide response on the clonal level, ten clones were isolated and characterized from the initial T cell line. As is shown in Table 37, each of the clones responded strongly to the Vβ8-44-54 peptide with stimulation indices ranging from 10× to 1300×, and weakly or not at all to the Vβ8.2-39-59 or Vβ8.6-39-59 peptides. Three of the four clones challenged with all three of the peptides responded selectively to the consensus Vβ8-44-54 peptide, whereas only one clone (B7) reflected the T cell line pattern of response characterized by response to Vβ8-44-54 >Vβ8.6-39-59 >Vβ8.2-39-59 (Table 37). Loss of viability of the clones precluded individual testing of EAE-protective activity.
# [6] = test system: EAE; conditions: rat, in vivo
# Experimental: Male Lewis rats (225250 g) were challenged SC with 100 μg TCR
# [7] = test system: lymph node cells and Vβ8-44-54 selected T cell line
# [8] = test system: TCR Vβ 8(39-59); assay type: binding, rat
# [9] = test system: EAE; experiment: Prevention, suppression and treatment of EAE with TCR Vβ8-39-59 peptide (Table 25); assay type: in vivo, Lewis rats
# [10] = peptide day 0, Gp-(S87-99) challenge day 44
# [11] = peptide day 0, Gp-S49S challenge day 44
# [12] = peptide/CFA s.q., Day 0, listed as TCR
sequence,measurement,setting,value
"DMGHGLRLIHYSYDVNSTEKG [TCR Vβ8(39-59), 21-amino acid CDR2 peptide of rat TCR Vβ8]","delayed hypersensitivity (DH) response, ear swelling",[1],0.17 mm
same,Theoretical Absorbance against Gp-S49S normalized to 1:40,"[2]; TCR d. 0, Gp-S49S d. 48, bleed d. 74",1750 Absorbance (×10^3)
same,Antisera Reactivity Against Gp-S49S,"[2]; TCR day 0, Gp-S(87-99) d. 44, bleed d. 65, 1:320",38 Absorbance (×10^3)
same,Antisera Reactivity Against Gp-S49S,"[2]; TCR peptide d. 0, Gp-S49S d. 48, bleed d. 74, 1:80",875 Absorbance (×10^3)
same,elevation of 26 day antibody responses to Gp-S49S and Gp-S53,[2]; preimmunized with TCR peptide vs rats not treated,two to four fold
same,Clinical Score,"[3]; 100 μg peptide/CFA day 0, GPBP (50 μg) challenge day 0",0.7 ± 0.3
same,Clinical Score,"[3]; 100 μg peptide/CFA day 0, Gp-S49S (100 μg) challenge day 0",0.5
same,Clinical Score,[3]; [10],0.0
same,Histological Score Br,[3]; [10],0.5 ± 0.6
same,Histological Score Sc,[3]; [10],0.8 ± 0.5
same,Clinical Score,[3]; [11],0.8
same,Histological Score Br,[3]; [11],1.8 ± 1.7
same,Histological Score Sc,[3]; [11],2.8 ± 1.0
same,EAE Incidence,[4]; 100 μg peptide/CFA SC 30 days before challenge with 50 μg GPBP/CFA,0/10
same,protection from EAE,[4]; Lewis rats,prevented completely the induction of EAE
same,Proliferation Response,[5]; Clone B3,1.1 CPM/1000
same,Proliferation Response,[5]; Clone B7,3 CPM/1000
same,Proliferation Response,[5]; Clone B11,0.7 CPM/1000
same,Proliferation Response,[5]; Clone D1,0.8 CPM/1000
same,Proliferation Response,[5]; Line,102 CPM/1000
same,Clinical Signs of EAE,[6],None
same,Response of Lymph Node Cells,[7],38 ± 3
same,Response of T Cell Line,[7],102 ± 10
same,Antisera Reactivity Against TCR Vβ 8 (39-59),[8],629 and 621
same,maximum clinical severity,"[9]; 50 μg i.d. on day 0, 7 or 11, controls 3.4",1.7-1.8
same,duration of EAE,"[9]; 50 μg i.d. on day 0, 7 or 11, controls 6.6 days",3 to 4 days
same,EAE/TOTAL,"[9]; i.d. in saline, Day 0",5/6
same,EAE/TOTAL,"[9]; i.d., 10 μg, day of onset",6/6
same,Max Clin. Signs,"[9]; i.d., 10 μg, day of onset",2.8 ± 0.4
same,Onset,"[9]; i.d., 10 μg, day of onset",12
same,Duration,"[9]; i.d., 10 μg, day of onset, listed as TCR",4.0 ± 0.9 days
same,Duration,"[9]; i.d., 10 μg, day of onset, listed as TCR peptide",4.0 days
same,EAE/TOTAL,"[9]; i.d., 50 μg, day of onset",9/9
same,Max Clin. Signs,"[9]; i.d., 50 μg, day of onset",2.8 ± 0.3
same,Onset,"[9]; i.d., 50 μg, day of onset",12
same,Duration,"[9]; i.d., 50 μg, day of onset, listed as TCR",3.1 ± 0.3 days
same,Duration,"[9]; i.d., 50 μg, day of onset, listed as TCR peptide",3.1 days
same,Duration,"[9]; i.d., Day 0",3.0 ± 1.8 days
same,Max Clin. Signs,"[9]; i.d., Day 0",1.8 ± 1.0
same,Onset,"[9]; i.d., Day 0",15
same,Duration,"[9]; i.d., Day 7",2.0 ± 1.9 days
same,EAE/TOTAL,"[9]; i.d., Day 7",4/6
same,Max Clin. Signs,"[9]; i.d., Day 7",1.7 ± 1.4
same,Onset,"[9]; i.d., Day 7",14
same,Duration,"[9]; i.d., Day before onset",2.5 ± 2.1 days
same,EAE/TOTAL,"[9]; i.d., Day before onset",6/8
same,Max Clin. Signs,"[9]; i.d., Day before onset",1.8 ± 1.3
same,Onset,"[9]; i.d., Day before onset",12
same,rats with onset of EAE completely prevented,[9]; injection after GP-MBP challenge but before onset,4/19
same,rats with all clinical signs of EAE completely suppressed,[9]; injection at the same time as GP-MBP challenge,6/19
same,Duration,"[9]; peptide/CFA s.q., Day 0",2.0 days
same,EAE/TOTAL,"[9]; peptide/CFA s.q., Day 0",8/13
same,Max Clin. Signs,"[9]; peptide/CFA s.q., Day 0",1.3
same,Onset,"[9]; peptide/CFA s.q., Day 0",13
same,Duration,[9]; [12],2.0 ± 1.8 days
same,Max Clin. Signs,[9]; [12],1.3 ± 1.1
same,Duration,"[9]; peptide/CFA s.q., Day -40",0 ± 0 days
same,EAE/TOTAL,"[9]; peptide/CFA s.q., Day -40",complete protection against clinical EAE
same,Max Clin. Signs,"[9]; peptide/CFA s.q., Day -40",0 ± 0
same,EAE/TOTAL,"[9]; peptide/CFA s.q., Day -40, listed as TCR",0/20
same,Duration,"[9]; peptide/CFA s.q., Day onset",3.5 days
same,EAE/TOTAL,"[9]; peptide/CFA s.q., Day onset",20/20
same,Max Clin. Signs,"[9]; peptide/CFA s.q., Day onset",2.3 ± 0.9
same,Onset,"[9]; peptide/CFA s.q., Day onset",12
same,Duration,"[9]; peptide/CFA s.q., Day onset, listed as TCR",3.5 ± 1.4 days
same,Duration,"[9]; peptide/CFA, Day 10",3.6 ± 0.9 days
same,EAE/TOTAL,"[9]; peptide/CFA, Day 10",5/5
same,Max Clin. Signs,"[9]; peptide/CFA, Day 10",2.8 ± 0.4
same,Onset,"[9]; peptide/CFA, Day 10",13
